The text below walks through data of PMC6874132, “Biosensors Show the Pharmacokinetics of S-Ketamine in the Endoplasmic Reticulum” (Frontiers in Cellular Neuroscience, 2019).

For series [1], the system named is iSketSnFR constructs. The series can be described thus: Activation of the iSketSnFR constructs by a permanently charged analog. The format is biochemical. How it is done:
(§1) Biosensors selected for further study were purified with the His6 sequence included in the bacterial expression vector (Shivange et al., [2019]). Proteins were purified by immobilization in phosphate-buffered saline (PBS), pH 7.4, and elution in an imidazole gradient (10–200 mM). Proteins were concentrated by centrifugation through a 30 kDa cut off column, and by dialysis against PBS. The dialyzed protein was quantified using a nanodrop spectrofluorometer, and 50 or (preferably) 100 nM was used in dose-response studies to characterize responses to various ligands. Dose-response relations for ligands were conducted with the plate reader. The pH-dependent dose-response studies with purified iSketSnFR constructs were performed using 3× PBS buffers.
The permanently charged nicotine analog, N’-methylnicotinium, previously provided additional insights for the iNicSnFR family (Shivange et al., [2019]).

For series [2], the system named is iSketSnFR1_PM. As to the kind of experiment: Time-resolved fluorescence in iPSC-derived dopaminergic neurons transfected with iSketSnFR1_PM. The series is classed as cell-based, human. Particulars: Figure 6C, dopaminergic neurons differentiated from iPSCs, average of five cells. From the text: (§2) We constructed two variants of the iSKetSnFR1 and iSketSnFR2 biosensors for expression in mammalian cells. The plasma membrane (_PM) and endoplasmic reticulum (_ER) variants were constructed by a circular polymerase extension cloning procedure. For iSketSnFR1_PM and iSKetSnFR2_PM, we cloned the bacterial constructs into pCMV(MinDis), a variant of pDisplay (Invitrogen, Carlsbad, CA, USA) lacking the hemagglutinin tag (Marvin et al., [2013]). We modified the previous transmembrane domain (Shivange et al., [2019]) as follows. We replaced the terminal KKPR of the PDGF receptor (a putative ER retention motif) with KYLQKRRERRRQ (a p14 Golgi export motif) and ENANSFCYENEVAL (a putative Kir2.X ER export motif). […]
(§3) Fujifilm CDI^2 (formerly named Cellular Dynamics International, Madison WI, USA), furnished iCell DopaNeurons. […] The supplier has measured that 89% of the cells are positive for tyrosine hydroxylase by fluorescence-activated cell sorting. […]
(§4) We find that signals with the iSKetSnFR constructs have brightness similar to those of the previous iNicSnFR cpGFP-based biosensors for nicotine (Shivange et al., [2019]), but the dynamic range is somewhat lower for the iKetSnFRs. […] Fluorescence measurements at λex = 470 nm have been described (Shivange et al., [2019]). […] PM-directed constructs were measured with a region of interest (ROI) that included only the cell periphery. […]

The subject of series [3] is iSketSnFR2_ER. As to the kind of experiment: Time-resolved fluorescence in Neuro2a cells transfected with iSketSnFR2_ER. The format is cell-based. The text has this: (§5) We constructed two variants of the iSKetSnFR1 and iSketSnFR2 biosensors for expression in mammalian cells. The plasma membrane (_PM) and endoplasmic reticulum (_ER) variants were constructed by a circular polymerase extension cloning procedure. For iSketSnFR1_PM and iSKetSnFR2_PM, we cloned the bacterial constructs into pCMV(MinDis), a variant of pDisplay (Invitrogen, Carlsbad, CA, USA) lacking the hemagglutinin tag (Marvin et al., [2013]). We modified the previous transmembrane domain (Shivange et al., [2019]) as follows. […]
(§6) We find that signals with the iSKetSnFR constructs have brightness similar to those of the previous iNicSnFR cpGFP-based biosensors for nicotine (Shivange et al., [2019]), but the dynamic range is somewhat lower for the iKetSnFRs. […] Fluorescence measurements at λex = 470 nm have been described (Shivange et al., [2019]). […] PM-directed constructs were measured with a region of interest (ROI) that included only the cell periphery.
(§7) Solutions were delivered from elevated reservoirs by gravity flow, through solenoid valves (Automate Scientific, Berkeley, CA, USA), then through tubing fed into a manifold, at a rate of 1–2 ml/min. […] As usual in fluorescence imaging experiments, we excluded data from the brightest cells, because these may have fluorescent impurities or aggregates that produce a rapidly bleaching baseline. […]

In series [4] the test system is endoplasmic reticulum (ER). The series can be described thus: Subcellular pharmacokinetics: S-ketamine in the endoplasmic reticulum measured with ER- and PM-targeted biosensors. Particulars: Neuro2a cells and human dopaminergic neurons differentiated from iPSCs. The series is classed as cell-based.
Text: as §5, §6, §7

For series [5] the following is noted: after which rapid antidepressant effects occur; ref Lester et al., 2012; Janssen Research and Development, 2019; cited from earlier work.
The subject of series [6] is iSketSnFR2_PM. The series can be described thus: Time-resolved fluorescence in Neuro2a cells transfected with iSketSnFR2_PM. The series is classed as cell-based.
Text: as §5, §6, §7

The test system of series [7] is iNicSnFR1, iNicSnFR2, and iNicSnFR3a, as well as 12 other biosensors in the series. The series can be described thus: Fluorescence test against iNicSnFR biosensors. Particulars: at concentrations <100 μM. The format is biochemical. On the procedure: A Tecan Spark M10 96-well fluorescence plate reader (equipped with appropriate filters) was used to measure resting and S-ketamine-induced fluorescence (F0 and ΔF, respectively). Bacterial lysates were tested with excitation at 485 nm and emission at 535 nm. Promising clones were amplified and sequenced. The most sensitive construct in each round of SSM was used as a template for the next round of SSM.
We tested S-ketamine and R-ketamine (Figure 1) against iNicSnFR1, iNicSnFR2, and iNicSnFR3a, as well as against 12 other biosensors in the series that led to the iNicSnFRs (Shivange et al., [2019]).

The test system of series [8] is iSketSnFR2 (AK8). As to the kind of experiment: Dose-response of purified iSketSnFR2 (AK8) biosensor fluorescence. The series is classed as biochemical. How it is done: (§8) A Tecan Spark M10 96-well fluorescence plate reader (equipped with appropriate filters) was used to measure resting and S-ketamine-induced fluorescence (F0 and ΔF, respectively). Bacterial lysates were tested with excitation at 485 nm and emission at 535 nm. Promising clones were amplified and sequenced.
as §1
(§9) We introduce a convenient metric to summarize progress in evolving increasingly sensitive fluorescent biosensors for drugs. The metric, the S-slope, is especially appropriate for low drug concentrations because it corresponds to the relationship between [drug] and ΔF at the beginning of the dose-response relation. We define the S-slope for use with intensity-based drug biosensors:
(§10) S−slope = Δ(F/F0)/(Δ[drug]).
(§11) We state the S-slope in units of μM^−1.
(§12) This article uses the S-slope for measurements on S-ketamine biosensors in bacterial lysates, with purified proteins, and expressed in cells. […] In this case, we calculated (as in Figure 2A below),

Series [9] concerns AK1. The series can be described thus: S-ketamine dose-response of biosensor construct AK1. The series is classed as biochemical. Particulars: at 1 μM S-ketamine; Gly residue at position 357.
Text: Starting with the iNicSnFR biosensor constructs (Shivange et al., [2019]), we constructed and measured ~3,000 mutants, in iterative rounds of site-saturated mutagenesis (SSM). We utilized the Quikchange mutagenesis protocol (Agilent), including a mixture of three primers, creating 22 unique codons encoding the 20 canonical amino acids (Kille et al., [2013]). The 22-codon procedure yields an estimated >96% residue coverage for a collection of 96 randomly chosen clones.
A Tecan Spark M10 96-well fluorescence plate reader (equipped with appropriate filters) was used to measure resting and S-ketamine-induced fluorescence (F0 and ΔF, respectively). Bacterial lysates were tested with excitation at 485 nm and emission at 535 nm. Promising clones were amplified and sequenced. […]
Biosensors selected for further study were purified with the His6 sequence included in the bacterial expression vector (Shivange et al., [2019]). […] The dialyzed protein was quantified using a nanodrop spectrofluorometer, and 50 or (preferably) 100 nM was used in dose-response studies to characterize responses to various ligands. Dose-response relations for ligands were conducted with the plate reader. […]
as §12

In series [10] the test system is iSketSnFR1 (AK2). As to the kind of experiment: Dose-response of purified iSketSnFR1 (AK2) biosensor fluorescence. The series is classed as biochemical. How it is done:
as §8, §1, §9, §10, §11, §12

Series [11] relates to iSketSnFR1_ER. As to the kind of experiment: Time-resolved fluorescence in iPSC-derived dopaminergic neurons transfected with iSketSnFR1_ER. The series is classed as cell-based, human. Particulars: Figure 6C, dopaminergic neurons differentiated from iPSCs, average of five cells.
Text: as §2, §3, §4

Series [12] deals with iSketSnFR1_PM or iSketSnFR1_ER. The series can be described thus: Time-resolved fluorescence in Neuro2a cells transfected with iSketSnFR1 constructs. The format is cell-based. Particulars: 20 s pulses (Figure 4), read-out: half-maximal concentration of S-ketamine.
Text: as §5, §6, §7

Where [13] appears, read: Figure 5C, sub-μM S-ketamine, linear fit, average of 10 cells.
Setting [14] is: [S-ketamine] <1 μM, mean ± SD, 25 total cells from two independent transfections.
Setting [15] is: Figure 2B2, purified protein, pH 7.0, 3× PBS, Hill fit.
The mark [16] stands for this setting: Figure 2B1, purified protein, pH 7.0, 3× PBS, Hill fit.

“And” between values parts separate entries of the source, which are not always exact repeats. Equal values may be shown once.

Regarding `C[N+](C)(C)[C@]1(c2ccccc2Cl)CCCCC1=O` [N,N-dimethyl-S-ketamine], in series [1], the “activation of the iSketSnFR constructs” value is listed as “did not produce robust activation”.

For `CN[C@]1(c2ccccc2Cl)CCCCC1=O` [S-ketamine], the S-slope in series [2] was 0.099 µM⁻¹ and 0.1 µM⁻¹; in [3] (setting [13]) it was 0.26 µM⁻¹; in series [3] (setting [14]), 0.29 ± 0.04 µM⁻¹; in series [6] (setting [13]), 0.49 µM⁻¹; in series [6] (setting [14]) it was 0.42 ± 0.14 µM⁻¹; in series [8] (Figure 7A, in solution, λEx = 400 nm, pH 7), -0.23 µM⁻¹. The S-slope in [11] came to 0.111 µM⁻¹. Further, the “time for entry into the ER after appearing in the external solution” value in series [4] is “within a few seconds”. In addition, the “time to leave the ER after removal from the extracellular solution” value in series [4] is “within a few seconds”. Moreover, the “peak blood plasma concentrations” value in series [5] was 0.2 to 1 µM. Further, the “fluorescence increase activated by ligand” value in [7] is recorded as “no detectable fluorescence increase”. Moreover, the “S-Ketamine Dose-Response S-slope” value is 1.87 µM⁻¹ and 1.9 µM⁻¹ in series [8] (Figure 2A, purified protein); 0.32 µM⁻¹ in series [10] (Figure 2A, purified protein). Also, the EC50 is 1.16 ± 0.6 µM in series [8] (setting [15]), 10.7 ± 1.5 µM in series [10] (setting [16]) and around 10 µM in series [12]. The ΔFmax/F0 was 3.0 ± 0.3 in series [8] (setting [15]) and 3.4 ± 0.1 in series [10] (setting [16]). Also, in [8] (in solution (abstract)), the “S-slope = delta(F/F0)/(delta[S-ketamine])” value is 1.9 µM⁻¹. Besides, the “[S-slope] (magnitude)” value in series [8] (λex = 400 nm, purified protein, pH range 6 to 8.5 (Supplementary Figure S2)) was at most 0.3. In addition, the ΔF/F0 in series [9] was ~ 0.12. Moreover, in series [10] (to 1 μM S-ketamine, expected from S-slope), the “expected response ΔF/F0 in vitro” value turned out to be 0.32.

`CN[C@@]1(c2ccccc2Cl)CCCCC1=O` [R-ketamine]: the “concentrations giving detectable responses” value in series [8] was above 100 µM. The “S-slope lower than that of S-ketamine” value in series [8] (at iSketSnFR2) is “at least 100 fold”.
